Experimental data: ChEMBL document CHEMBL1201862, “PubChem BioAssay data set” (2004)
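Protocol summary: plate cells (96-well), add compound at 5 concentrations, incubate 48 h, interpolate endpoints linearly. Here, GI50 denotes the concentration required for 50% inhibition of growth.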 Calls of active or inactive are those of the source. No stated cut-off is given here; in the data, active = GI50 up to about 1.1 µM and inactive = higher.

Columns and labels:
Assay in all cases: NCI-60 cell line screen, 48 h
HOP-62 = system: HOP-62
OVCAR-3 = system: OVCAR-3
EKVX = system: EKVX
NCI-H23 = system: NCI-H23
SNB-75 = system: SNB-75
HT-29 = system: HT-29
SF-268 = system: SF-268
OVCAR-5 = system: OVCAR-5
ACHN = system: ACHN
HCT-116 = system: HCT-116
SR = system: SR
U-251 = system: U-251
LXFL 529 = system: LXFL 529
A498 = system: A498
RXF 393 = system: RXF 393
BT-549 = system: BT-549
MDA-N = system: MDA-N
Hs-578T = system: Hs-578T
MCF7 = system: MCF7
T47D = system: T47D

Row | SMILES | GI50 (HOP-62) | GI50 (OVCAR-3) | GI50 (EKVX) | GI50 (NCI-H23) | GI50 (SNB-75) | GI50 (HT-29) | GI50 (SF-268) | GI50 (OVCAR-5) | GI50 (ACHN) | GI50 (HCT-116) | GI50 (SR) | GI50 (U-251) | GI50 (LXFL 529) | GI50 (A498) | GI50 (RXF 393) | GI50 (BT-549) | GI50 (MDA-N) | GI50 (Hs-578T) | GI50 (MCF7) | GI50 (T47D)
1 | COC(CC1(OC)OC(=O)C=C1N)OC (stereo unspecified) | > 100 µM (inactive) | > 100 µM (inactive) | > 100 µM (inactive) | > 100 µM (inactive) | 76.7 µM (inactive) | > 100 µM (inactive) | > 100 µM (inactive) | > 100 µM (inactive) | > 100 µM (inactive) | > 100 µM (inactive) | > 100 µM (inactive) | > 100 µM (inactive) | > 100 µM (inactive) | > 100 µM (inactive) |  |  |  |  |  | 
2 | CC(=O)Nc1ccc(-c2nnc(SCC(=O)Nc3ccccc3C)o2)cc1 | > 100 µM (inactive) | 74.5 µM (inactive) |  | > 100 µM (inactive) | > 100 µM (inactive) | 38 µM (inactive) | > 100 µM (inactive) | > 100 µM (inactive) | > 100 µM (inactive) | 15.6 µM (inactive) | 55.5 µM (inactive) | 66.7 µM (inactive) | 33.3 µM (inactive) |  | 65.3 µM (inactive) |  |  |  |  | 
3 | CCCCCCC(O)C/C=C/CCCCCC/C(C(=O)OC)=C(/O)C(=O)OCC (stereo unspecified) | > 100 µM (inactive) | > 100 µM (inactive) | > 100 µM (inactive) | > 100 µM (inactive) | > 100 µM (inactive) | > 100 µM (inactive) | > 100 µM (inactive) | > 100 µM (inactive) | > 100 µM (inactive) | > 100 µM (inactive) | 7.93 µM (inactive) | > 100 µM (inactive) | > 100 µM (inactive) | > 100 µM (inactive) |  |  |  |  |  | 
4 | CC(=O)c1ccc(NC(=O)C(=O)C(C(=O)/C=C/c2ccccc2)C2OC(=O)c3ccccc32)cc1 (stereo unspecified) | > 100 µM (inactive) |  | > 100 µM (inactive) | > 100 µM (inactive) | > 100 µM (inactive) | > 100 µM (inactive) | > 100 µM (inactive) | > 100 µM (inactive) | > 100 µM (inactive) | > 100 µM (inactive) | 60.8 µM (inactive) | 83 µM (inactive) | 96.6 µM (inactive) | > 100 µM (inactive) | > 100 µM (inactive) |  |  |  |  | 
5 | C1CN1c1nc(N2CC2)nc(N2CC2)n1 | 1.97 µM (inactive) | 16 µM (inactive) | 19.5 µM (inactive) | 2.73 µM (inactive) | 5.66 µM (inactive) | 13.2 µM (inactive) | 2.99 µM (inactive) | 11.5 µM (inactive) | 0.944 µM (active) | 8.55 µM (inactive) | 0.5 µM (active) | 3.92 µM (inactive) | 13.9 µM (inactive) | 9.95 µM (inactive) | 6.78 µM (inactive) | 15.9 µM (inactive) | 12.1 µM (inactive) | 26.5 µM (inactive) | 2.16 µM (inactive) | 
6 | Cc1ccc(NC(=O)CCc2n[nH]c(=S)o2)cc1 | > 100 µM (inactive) | > 100 µM (inactive) | > 100 µM (inactive) | > 100 µM (inactive) | > 100 µM (inactive) | > 100 µM (inactive) | > 100 µM (inactive) | > 100 µM (inactive) | > 100 µM (inactive) | > 100 µM (inactive) | > 100 µM (inactive) | > 100 µM (inactive) | > 100 µM (inactive) | > 100 µM (inactive) | > 100 µM (inactive) |  |  |  |  | 
7 | C=CN1C(=O)[C@H](Oc2ccccc2)[C@@H]1c1ccccc1 | 32.7 µM (inactive) |  | 47.8 µM (inactive) | 21.7 µM (inactive) | 15.6 µM (inactive) | 22.7 µM (inactive) | 37.2 µM (inactive) | > 100 µM (inactive) | 32 µM (inactive) | 24.9 µM (inactive) | 40.3 µM (inactive) | 36.4 µM (inactive) | 31.4 µM (inactive) | 71.4 µM (inactive) | 17.8 µM (inactive) |  |  |  |  | 
8 | O=C(Nc1nc2ccccc2n1Cc1ccccc1)NC12CC3CC(CC(C3)C1)C2 | 32.6 µM (inactive) | 38.5 µM (inactive) | > 100 µM (inactive) | 42.9 µM (inactive) | 22.4 µM (inactive) | > 100 µM (inactive) | 14.4 µM (inactive) | > 100 µM (inactive) | 44.7 µM (inactive) | 30.4 µM (inactive) | 80.2 µM (inactive) | 39 µM (inactive) | 67.8 µM (inactive) |  | 19.5 µM (inactive) |  |  |  |  | 
9 | O=C1c2ccccc2C(=O)N1C/C=N/NS(=O)(=O)c1cccc([N+](=O)[O-])c1 | > 100 µM (inactive) |  | > 100 µM (inactive) | > 100 µM (inactive) | > 100 µM (inactive) | > 100 µM (inactive) | > 100 µM (inactive) |  | > 100 µM (inactive) | > 100 µM (inactive) | > 100 µM (inactive) | > 100 µM (inactive) | > 100 µM (inactive) | > 100 µM (inactive) | > 100 µM (inactive) |  |  |  |  | 
10 | CC(=O)/C=C/c1cccc(N=S)c1 | > 63.5 µM (inactive) | 19.2 µM (inactive) | > 40.8 µM (inactive) | 30.7 µM (inactive) | 21.1 µM (inactive) | 6.28 µM (inactive) | > 30.3 µM (inactive) | > 69 µM (inactive) | > 38.4 µM (inactive) | 1.39 µM (inactive) | 7.78 µM (inactive) | 6.64 µM (inactive) | 5.78 µM (inactive) | 27 µM (inactive) | 17.6 µM (inactive) |  |  |  |  | 
11 | CN(C=O)/C=C/c1cc(O)ccc1O | > 43 µM (inactive) | 18.2 µM (inactive) | 40.6 µM (inactive) | 36.8 µM (inactive) | 21.7 µM (inactive) | 32.6 µM (inactive) | 25.8 µM (inactive) | 40.6 µM (inactive) | 16.1 µM (inactive) | 33 µM (inactive) | 20.5 µM (inactive) | 39.6 µM (inactive) | 18.8 µM (inactive) | > 68.2 µM (inactive) | 18 µM (inactive) |  |  |  |  | 
12 | CCN(CC)c1ccc(/N=N/c2ccc(-c3nc4cccnc4s3)cc2)cc1 | > 100 µM (inactive) | > 100 µM (inactive) | > 100 µM (inactive) | > 100 µM (inactive) | 32.8 µM (inactive) | > 100 µM (inactive) | 57.5 µM (inactive) | > 100 µM (inactive) | > 100 µM (inactive) | > 100 µM (inactive) | > 100 µM (inactive) | > 100 µM (inactive) | > 100 µM (inactive) | > 100 µM (inactive) |  |  |  |  |  | 
13 | CN(C)CC/C(=N\Nc1ccc(Cl)cc1Cl)c1ccccc1 | 13.9 µM (inactive) | 14 µM (inactive) | 20.6 µM (inactive) | 17 µM (inactive) | 7.74 µM (inactive) | 14.3 µM (inactive) |  | 16.9 µM (inactive) | 15 µM (inactive) | 13.8 µM (inactive) | 12 µM (inactive) | 12.4 µM (inactive) | 13.2 µM (inactive) | 16.4 µM (inactive) | 7.96 µM (inactive) |  |  |  |  | 
14 | COC(=O)c1cccc2cccc(C(=O)Nc3ccc(C)cc3C)c12 | > 100 µM (inactive) | 72.8 µM (inactive) | > 100 µM (inactive) | > 100 µM (inactive) | > 100 µM (inactive) | 91 µM (inactive) | > 100 µM (inactive) | > 100 µM (inactive) | 67.1 µM (inactive) | > 100 µM (inactive) | 37.6 µM (inactive) | > 100 µM (inactive) | > 100 µM (inactive) | 33 µM (inactive) | 39.3 µM (inactive) |  |  |  |  | 
15 | CCC(=O)c1c(NOC2OC(COC(C)=O)C(OC(C)=O)C(OC(C)=O)C2OC(C)=O)nc(OC)n(C)c1=O (stereo unspecified) | > 100 µM (inactive) |  | > 100 µM (inactive) | > 100 µM (inactive) | > 100 µM (inactive) | > 100 µM (inactive) | > 100 µM (inactive) | > 100 µM (inactive) | > 100 µM (inactive) | > 100 µM (inactive) | > 100 µM (inactive) | > 100 µM (inactive) | > 100 µM (inactive) |  | > 100 µM (inactive) |  |  |  |  | 
16 | O=c1cc(-c2cccnc2)[nH]c2cc3c(cc12)OCO3 | 7.5 µM (inactive) | 2.81 µM (inactive) |  | 10.3 µM (inactive) | 3.29 µM (inactive) | 6.59 µM (inactive) | 12.9 µM (inactive) | > 100 µM (inactive) | 13.6 µM (inactive) | 4.8 µM (inactive) |  | 4.16 µM (inactive) | 2.3 µM (inactive) | 10.7 µM (inactive) | 9.02 µM (inactive) | 30.3 µM (inactive) | 2.29 µM (inactive) | 11.3 µM (inactive) | 5.92 µM (inactive) | > 100 µM (inactive)
17 | C=C1C(=O)OC2/C=C(/C)C3CC(O)C(C)(CC(OC(=O)/C(C)=C/C)C12)O3 (stereo unspecified) | 25.1 µM (inactive) | 3.78 µM (inactive) | 3.86 µM (inactive) | 4.49 µM (inactive) | 9.04 µM (inactive) | 3.76 µM (inactive) | 4.2 µM (inactive) | 8.61 µM (inactive) | 2.49 µM (inactive) | 1.53 µM (inactive) |  | 9.04 µM (inactive) | 2.08 µM (inactive) | 10.4 µM (inactive) | 1.52 µM (inactive) |  |  |  |  | 
18 | CNC1=Nc2ccc(Cl)cc2C(OP(=O)(N2CCOCC2)N2CCOCC2)=NC1 |  | > 100 µM (inactive) | 84.9 µM (inactive) | > 100 µM (inactive) | > 100 µM (inactive) | > 100 µM (inactive) |  | > 100 µM (inactive) | > 100 µM (inactive) | > 100 µM (inactive) | > 100 µM (inactive) | > 100 µM (inactive) | > 100 µM (inactive) | > 100 µM (inactive) | > 100 µM (inactive) |  |  |  |  | 
